From ChEMBL document CHEMBL5528030, “Discovery of Natural Ah Receptor Antagonists from Salvia miltiorrhiza Bunge and Synthesis of Analogs for Tumor Immunotherapy” (J Med Chem, 2024)

What was measured:
[1] = Toxicity against C57BL/6 mouse xenografted with mouse B16-F10 cells assessed as change in body weight at 0.3 to 1 mg/kg, po administered daily and measured for 15 days; format: organism-based; conditions: in vivo, 360 h, dose 0.3-1 mg/kg, time 15 day
[2] = target: T1, Aryl hydrocarbon receptor (Mus musculus, UniProt P30561); assay: Antagonist activity at AhR receptor in mouse B16-F10 cells assessed as inhibition of kynurenine-induced receptor nuclear translocation by measuring increase in receptor level in cytoplasm at 30 uM measured after 24 hrs by western blot analysis; format: subcellular; conditions: b16-f10, 24 h
T1 sequence (P30561 whole entry): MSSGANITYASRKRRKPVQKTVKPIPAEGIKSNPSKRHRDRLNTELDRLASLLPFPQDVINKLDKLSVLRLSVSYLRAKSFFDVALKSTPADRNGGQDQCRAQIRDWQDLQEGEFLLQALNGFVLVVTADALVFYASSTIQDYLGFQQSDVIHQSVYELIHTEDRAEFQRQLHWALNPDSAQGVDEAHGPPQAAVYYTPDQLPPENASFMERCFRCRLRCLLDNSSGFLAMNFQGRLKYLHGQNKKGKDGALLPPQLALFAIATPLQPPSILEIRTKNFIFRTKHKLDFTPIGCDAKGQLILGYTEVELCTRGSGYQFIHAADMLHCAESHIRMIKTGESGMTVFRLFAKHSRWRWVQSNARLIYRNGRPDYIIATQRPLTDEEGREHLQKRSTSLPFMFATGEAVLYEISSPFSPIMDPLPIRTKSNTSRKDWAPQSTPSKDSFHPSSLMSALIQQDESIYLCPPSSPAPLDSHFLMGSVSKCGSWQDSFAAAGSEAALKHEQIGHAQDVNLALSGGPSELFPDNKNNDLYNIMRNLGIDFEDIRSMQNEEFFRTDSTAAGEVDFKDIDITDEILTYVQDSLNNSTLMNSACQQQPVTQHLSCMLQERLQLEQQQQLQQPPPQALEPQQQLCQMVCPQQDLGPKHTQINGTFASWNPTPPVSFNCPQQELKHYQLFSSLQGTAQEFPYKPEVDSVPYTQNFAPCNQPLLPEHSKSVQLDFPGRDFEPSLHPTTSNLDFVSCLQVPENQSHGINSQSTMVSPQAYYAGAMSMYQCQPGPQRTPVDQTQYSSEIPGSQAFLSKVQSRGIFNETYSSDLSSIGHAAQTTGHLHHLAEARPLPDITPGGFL

[3] = target: T1, Aryl hydrocarbon receptor; assay: Antagonist activity at AhR receptor in kynurenine-stimulated mouse B16-F10 cells assessed as decrease in AhRR gene expression at 10 to 30 uM measured after 24 hrs by RT-qPCR analysis; format: cell-based; conditions: b16-f10, 24 h, dose 10-30 µM
[4] = target: T1, Aryl hydrocarbon receptor; assay: Antagonist activity at AhR receptor in mouse B16-F10 cells assessed as inhibition of kynurenine-induced receptor nuclear translocation by measuring decrease in receptor level in nucleus at 10 to 30 uM measured after 72 hrs by Hoechst staining based immunofluorescence analysis; format: cell-based; conditions: b16-f10, 72 h, dose 10-30 µM
[5] = target: T1, Aryl hydrocarbon receptor; assay: Antagonist activity at AhR receptor in mouse B16-F10 cells assessed as inhibition of kynurenine-induced receptor nuclear translocation by measuring decrease in receptor level in nucleus at 30 uM measured after 24 hrs by western blot analysis; format: subcellular; conditions: b16-f10, 24 h
[6] = target: T1, Aryl hydrocarbon receptor; assay: Antagonist activity at AhR receptor in kynurenine-stimulated mouse B16-F10 cells assessed as decrease in IDO-1 gene expression at 10 to 30 uM measured after 48 hrs by RT-qPCR analysis; format: cell-based; conditions: b16-f10, 48 h, dose 10-30 µM
[7] = target: T1, Aryl hydrocarbon receptor; assay: Antagonist activity at AhR receptor in mouse B16-F10 cells assessed as inhibition of kynurenine-induced receptor nuclear translocation by measuring increase in receptor level in cytoplasm at 10 to 30 uM measured after 72 hrs by Hoechst staining based immunofluorescence analysis; format: cell-based; conditions: b16-f10, 72 h, dose 10-30 µM
[8] = target: T1, Aryl hydrocarbon receptor; assay: Antagonist activity at AhR receptor in kynurenine-stimulated mouse B16-F10 cells assessed as decrease in IL-6 gene expression at 10 to 30 uM measured after 24 hrs by RT-qPCR analysis; format: cell-based; conditions: b16-f10, 24 h, dose 10-30 µM
B16-F10 = assay: animal or person; conditions: Mus musculus, B16-F10, 360 h, read-out: TGI
Description: Antitumor activity against mouse B16-F10 cells xenografted in C57BL/6 mouse assessed as inhibition of tumor growth at 100 mg/kg, ip administered once a week and measured for 15 days

| SMILES | Activity [1] | inhibition (INH) [2] | inhibition (INH) [3] | inhibition (INH) [4] | inhibition (INH) [5] | inhibition (INH) [6] | inhibition (INH) [7] | inhibition (INH) [8] | inhibition in vivo at 100 mg/kg (B16-F10) |
| --- | --- | --- | --- | --- | --- | --- | --- | --- | --- |
| CC(=O)OC1Oc2c(C(C)C)cc3ccc4c(C)c(C)ccc4c3c2OC1c1ccccc1 (racemic) | Non-Toxic | Active | Active | Active | Active | Active | Active | Active |  |
| O=P1(N(CCCl)CCCl)NCCCO1 (centres undefined) [CYCLOPHOSPHAMIDE ANHYDROUS] |  |  |  |  |  |  |  |  | 92.2% |
